Patent publication US8513251B2, “Pyridazinone compounds” (Takeda Pharmaceutical Company Limited, priority 2009, dated 2013)

Row | melting point [°C] | SMILES
1 | 147 to 150 | Cc1cn(-c2cccc(C(F)(F)F)c2)nc(-c2ccnn2-c2ccccc2)c1=O [Example 50, 5-Methyl-3-(1-phenyl-1H-pyrazol-5-yl)-1-[3-(trifluoromethyl)phenyl]pyridazin-4(1H)-one]
2 | 167 to 168 | Cc1cc(-c2nn(-c3cccc(C(F)(F)F)c3)ccc2=O)n(-c2ccccc2)n1 [Example 51, 3-(3-Methyl-1-phenyl-1H-pyrazol-5-yl)-1-[3-(trifluoromethyl)phenyl]pyridazin-4(1H)-one]
3 | 194 to 196 | COc1cn(-c2ccc(I)cc2F)nc(-c2ccnn2-c2ccccc2)c1=O [Example 55, 1-(2-Fluoro-4-iodophenyl)-5-methoxy-3-(1-phenyl-1H-pyrazol-5-yl)pyridazin-4(1H)-one]
4 | 169 to 171 | COc1cn(-c2ccc(C(F)(F)F)cc2F)nc(-c2ccnn2-c2ccccc2)c1=O [Example 56, 1-[2-Fluoro-4-(trifluoromethyl)phenyl]-5-methoxy-3-(1-phenyl-1H-pyrazol-5-yl)pyridazin-4(1H)-one]
5 | 246 to 248 | O=c1c(O)cn(-c2cccc(C(F)(F)F)c2)nc1-c1ccnn1-c1ccccc1 [Example 58, 5-Hydroxy-3-(1-phenyl-1H-pyrazol-5-yl)-1-[3-(trifluoromethyl)phenyl]pyridazin-4(1H)-one]
6 | 137 to 139 | CC(C)Oc1cn(-c2cccc(C(F)(F)F)c2)nc(-c2ccnn2-c2ccccc2)c1=O [Example 60, 5-(1-Methylethoxy)-3-(1-phenyl-1H-pyrazol-5-yl)-1-[3-(trifluoromethyl)phenyl]pyridazin-4(1H)-one]
7 | 72 to 78 | O=c1c(OCC2CC2)cn(-c2cccc(C(F)(F)F)c2)nc1-c1ccnn1-c1ccccc1 [Example 61, 5-(Cyclopropylmethoxy)-3-(1-phenyl-1H-pyrazol-5-yl)-1-[3-(trifluoromethyl)phenyl]pyridazin-4(1H)-one]
8 | 137 to 139 | COCc1cn(-c2cccc(C(F)(F)F)c2)nc(-c2ccnn2-c2ccccc2)c1=O [Example 66, 5-(Methoxymethyl)-3-(1-phenyl-1H-Pyrazol-5-yl)-1-[3-(trifluoromethyl)phenyl]pyridazin-4(1H)-one]
9 | 145 to 146 | O=c1c(Br)cn(-c2cccc(C(F)(F)F)c2)nc1-c1ccnn1-c1ccccc1 [Example 67, 5-Bromo-3-(1-phenyl-1H-pyrazol-5-yl)-1-[3-(trifluoromethyl)phenyl]pyridazin-4(1H)-one]
10 | 181 to 183 | COc1cn(-c2ccc(OCc3ccccc3)cc2F)nc(-c2ccnn2-c2ccccc2)c1=O [Example 68, 1-[4-(Benzyloxy)-2-fluorophenyl]-5-methoxy-3-(1-phenyl-1H-pyrazol-5-yl)pyridazin-4(1H)-one]
11 | 241 to 243 | O=c1cc(O)n(-c2cccc(C(F)(F)F)c2)nc1-c1ccnn1-c1ccccc1 [Example 69, 6-Hydroxy-3-(1-phenyl-1H-pyrazol-5-yl)-1-[3-(trifluoromethyl)phenyl]pyridazin-4(1H)-one]
12 | 190 to 191 | O=c1ccn(-c2cccc(C(F)(F)F)c2)nc1-c1cc(C(F)(F)F)nn1-c1ccccc1 [Example 70, 3-[1-Phenyl-3-(trifluoromethyl)-1H-pyrazol-5-yl]-1-[3-(trifluoromethyl)phenyl]pyridazin-4(1H)-one]
13 | 208 to 211 | Cc1cnn(-c2ccccc2)c1-c1nn(-c2cccc(C(F)(F)F)c2)ccc1=O [Example 71, 3-(4-Methyl-1-phenyl-1H-pyrazol-5-yl)-1-[3-(trifluoromethyl)phenyl]pyridazin-4(1H)-one]
14 | 216 to 218 | O=c1ccn(-c2cccc(C(F)(F)F)c2)nc1-c1cn(C(c2ccccc2)(c2ccccc2)c2ccccc2)nc1-c1ccccc1 [Example 73, 3-(3-Phenyl-1-trityl-1H-pyrazol-4-yl)-1-[3-(trifluoromethyl)phenyl]pyridazin-4(1H)-one]
15 | 206 to 208 | O=c1ccn(-c2cccc(C(F)(F)F)c2)nc1-c1c[nH]nc1-c1ccccc1 [Example 74, 3-(3-Phenyl-1H-pyrazol-4-yl)-1-[3-(trifluoromethyl)phenyl]pyridazin-4(1H)-one]
16 | 193 to 195 | Cn1ncc(-c2nn(-c3cccc(C(F)(F)F)c3)ccc2=O)c1-c1ccccc1 [Example 75, 3-(1-Methyl-5-phenyl-1H-pyrazol-4-yl)-1-[3-(trifluoromethyl)phenyl]pyridazin-4(1H)-one]
17 | 181 to 183 | Cn1cc(-c2nn(-c3cccc(C(F)(F)F)c3)ccc2=O)c(-c2ccccc2)n1 [Example 76, 3-(1-Methyl-3-phenyl-1H-pyrazol-4-yl)-1-[3-(trifluoromethyl)phenyl]pyridazin-4(1H)-one]
18 | 183 to 186 | CC(C)n1ncc(-c2nn(-c3cccc(C(F)(F)F)c3)ccc2=O)c1-c1ccccc1 [Example 78, 3-[1-(1-Methylethyl)-5-phenyl-1H-pyrazol-4-yl]-1-[3-(trifluoromethyl)phenyl]pyridazin-4(1H)-one]
19 | 217 to 219 | O=c1ccn(-c2cccc(C(F)(F)F)c2)nc1-c1conc1-c1ccccc1 [Example 79, 3-(3-Phenylisoxazol-4-yl)-1-[3-(trifluoromethyl)phenyl]pyridazin-4(1H)-one]
20 | 204 to 205 | O=c1ccn(-c2cccc(C(F)(F)F)c2)nc1-n1ccnc1-c1ccccc1 [Example 81, 3-(2-Phenyl-1H-imidazol-1-yl)-1-[3-(trifluoromethyl)phenyl]pyridazin-4(1H)-one]
21 | 167 to 170 | COc1cn(-c2cccc(C(F)(F)F)c2)nc(-n2ccnc2-c2ccccc2)c1=O [Example 82, 5-Methoxy-3-(2-phenyl-1H-imidazol-1-yl)-1-[3-(trifluoromethyl)phenyl]pyridazin-4(1H)-one]
22 | 214 to 216 | Cn1cnc(-c2ccccc2)c1-c1nn(-c2cccc(C(F)(F)F)c2)ccc1=O [Example 84, 3-(1-Methyl-4-phenyl-1H-imidazol-5-yl)-1-[3-(trifluoromethyl)phenyl]pyridazin-4(1H)-one]
23 | 159 to 163 | O=c1ccn(-c2cccc(C(F)(F)F)c2)nc1-c1ccoc1-c1ccccc1 [Example 85, 3-(2-Phenylfuran-3-yl)-1-[3-(trifluoromethyl)phenyl]pyridazin-4(1H)-one]
24 | 167 to 168 | O=c1ccn(-c2cccc(C(F)(F)F)c2)nc1-c1ccsc1-c1ccccc1 [Example 86, 3-(2-Phenylthiophen-3-yl)-1-[3-(trifluoromethyl)phenyl]pyridazin-4(1H)-one]
25 | 195 to 197 | COc1cn(-c2ccncc2)nc(-c2ccnn2-c2ccccc2)c1=O [Example 87, 5-Methoxy-3-(1-phenyl-1H-pyrazol-5-yl)-1-pyridin-4-ylpyridazin-4(1H)-one]
26 | 189 to 192 | COc1cn(-c2cccc3cccnc23)nc(-c2ccnn2-c2ccccc2)c1=O [Example 88, 5-Methoxy-3-(1-phenyl-1H-pyrazol-5-yl)-1-quinolin-8-ylpyridazin-4(1H)-one]
27 | 181 to 183 | COc1cn(-c2cccc3c2OC(F)(F)O3)nc(-c2ccnn2-c2ccccc2)c1=O [Example 90, 1-(2,2-Difluoro-1,3-benzodioxol-4-yl)-5-methoxy-3-(1-phenyl-1H-pyrazol-5-yl)pyridazin-4(1H)-one]
